Data on 17 molecules can be found in patent US7713971B2, “1,2,4-triazine derivatives, preparation and use thereof in human therapy” (Pierre Fabre Medicament, priority 2005, dated 2010).

Structures are written as SMILES. Like-named read-outs stand apart in the source and are kept apart here. Some results are limits rather than exact numbers.

Assay [1] deals with insulin-resistant male rat (Ico: ZUCKER-fa/fa). Nature of the assay: Normalization of metabolic parameters (cholesterol, plasma triglycerides) in insulin-resistant rat. The format is in vivo. The conditions noted are these: oral route, once per day for four days, Zucker fa/fa rat unfed 16-18 hours; for change in vivo at 10 mg/kg / change in vivo at 2.5 mg/kg: 96 h. Here is the method:
Normalization of metabolic parameters (cholesterol, plasma triglycerides) in an insulin-resistant male rat (Ico: ZUCKER-fa/fa), unfed for 16-18 hours, after treatment by oral route, once per day for four days, with the compounds to be evaluated or their administration vehicle.
These metabolic parameters are measured by spectrophotometry at the beginning and the end of each animal's treatment.

The target of a further assay is T1, human PPARα (Homo sapiens, UniProt Q07869).
T1 construct: expressed in transfected cells; host or cells: Cos-7 cells (ATCC, CRL-1651)
T1 sequence (Q07869 239-466 limits assumed): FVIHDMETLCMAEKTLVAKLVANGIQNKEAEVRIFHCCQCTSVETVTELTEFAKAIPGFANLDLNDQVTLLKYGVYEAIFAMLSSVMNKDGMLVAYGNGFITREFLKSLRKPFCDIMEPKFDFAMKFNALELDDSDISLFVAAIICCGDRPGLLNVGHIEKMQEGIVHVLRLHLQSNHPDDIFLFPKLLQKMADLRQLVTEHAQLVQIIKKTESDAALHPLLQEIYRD
The assay is described as follows: Reporter gene transactivation, hPPAR-GAL4 alpha. The assay is classed as cell-based. The conditions noted are these: transfected Cos-7 cells, Gal-4 luciferase reporter, 24 hours treatment. (In a reporter assay the amount or activity of a reporter protein is the signal.)

A further assay concerns the target T2, human PPARγ (Homo sapiens, UniProt P37231).
T2 construct: expressed in transfected cells; host or cells: Cos-7 cells (ATCC, CRL-1651)
T2 sequence (P37231 238-503 limits assumed): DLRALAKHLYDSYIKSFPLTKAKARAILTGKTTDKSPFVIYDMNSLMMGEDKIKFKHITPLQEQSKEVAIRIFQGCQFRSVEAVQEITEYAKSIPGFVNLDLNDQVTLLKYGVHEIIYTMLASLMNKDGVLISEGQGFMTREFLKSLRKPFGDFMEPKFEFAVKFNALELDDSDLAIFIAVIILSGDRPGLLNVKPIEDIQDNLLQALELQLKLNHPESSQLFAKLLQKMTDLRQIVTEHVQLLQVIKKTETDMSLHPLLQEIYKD
The assay is described as follows: Reporter gene transactivation, hPPAR-GAL4 gamma. The conditions noted are these: transfected Cos-7 cells, Gal-4 luciferase reporter, 24 hours treatment. The assay is classed as cell-based.

[2] abbreviates: at 10 mg/kg, read-out: Plasma cholesterol.
Where [3] appears, read: at 10 mg/kg, read-out: Plasma triglycerides.
Setting [4] is: at 2.5 mg/kg, read-out: Plasma cholesterol.
The mark [5] stands for this setting: at 2.5 mg/kg, read-out: Plasma triglycerides.

Regarding `CCCCCCCn1c(=O)c(NCCCOc2ccc(OC(C)(C)C(=O)OCC)cc2)nn(C)c1=O` [Example 47, Ethyl 2-{4-[3-(4-heptyl-4-methyl-3,5-dioxo-2,3,4,5-tetrahydro-[1,2,4]triazin-6-ylamino)-propoxy]-phenoxy}-2-methyl-propionate], the results for the change in vivo at 10 mg/kg in assay [1] (setting [2]) and in assay [1] (setting [3]) were -25% and -45%, respectively. Also, the figures for the half-maximal effective concentration (EC50) on human PPARα and on human PPARγ were approximately 300 nM and approximately 0.3 µM, respectively.
`CCCCCCCn1nc(NCCc2ccc(SC(C)(C)C(=O)O)cc2)c(=O)n(CCCC)c1=O` [Example 121, 2-{4-[2-(4-Butyl-2-heptyl-3,5-dioxo-2,3,4,5-tetrahydro-[1,2,4]triazin-6-ylamino)-ethyl]-phenylsulfanyl}-2-methyl-propionic Acid]: the change in vivo at 2.5 mg/kg was -7% in assay [1] (setting [4]) and -24% in assay [1] (setting [5]). The EC50 lay within 30 to 100 nM on human PPARα and 1 to 3 µM on human PPARγ.
As to `CCOC(=O)C(C)(C)Oc1cccc(CCCCCOc2nn(C)c(=O)n(CCCC(F)(F)F)c2=O)c1` [Example 16, Ethyl 2-methyl-2-(3-{5-[2-methyl-3,5-dioxo-4-(4,4,4-trifluoro-butyl)-2,3,4,5-tetrahydro-[1,2,4]triazin-6-yloxy]-pentyl}-phenoxy)-propionate], in assay [1] (setting [4]), the change in vivo at 2.5 mg/kg is -14%. Besides, the change in vivo at 10 mg/kg in assay [1] (setting [2]) was -25%; in assay [1] (setting [3]) it was -15%. Moreover, the Plasma triglycerides entry in assay [1] (at 2.5 mg/kg) was “inactive at 2.5”. Moreover, the EC50 at human PPARα is approximately 100 nM; at human PPARγ it was 3 to 10 µM.
For `CCCCCCCn1nc(NCCc2ccc(SC(C)(C)C(=O)O)cc2)c(=O)n(C)c1=O` [Example 120, 2-{4-[2-(2-Heptyl-4-methyl-3,5-dioxo-2,3,4,5-tetrahydro-[1,2,4]triazin-6-ylamino)-ethyl]-phenylsulfanyl}-2-methyl-propionic Acid], the values for the change in vivo at 2.5 mg/kg in assay [1] (setting [4]) and in assay [1] (setting [5]) were -32% and -27%, respectively. The change in vivo at 10 mg/kg in assay [1] (setting [2]) was -33%; in assay [1] (setting [3]), -73%. The EC50 was 300 to 1000 nM at human PPARα and 1 to 3 µM at human PPARγ.
`CCCCCCCn1c(=O)c(NCCCCc2cccc(OC(C)(C)C(=O)OCC)c2)nn(CCCC(F)(F)F)c1=O` [Example 85, Ethyl 2-(3-{4-[4-heptyl-3,5-dioxo-2-(4,4,4-trifluoro-butyl)-2,3,4,5-tetrahydro-[1,2,4]triazin-6-ylamino]-butyl}-phenoxy)-2-methyl-propionate]: the change in vivo at 10 mg/kg in assay [1] (setting [2]) was -21%. For the same molecule, the Plasma triglycerides entry in assay [1] (at 10 mg/kg) is “active at 10 mg/kg”. The EC50 at human PPARα was approximately 30 nM; at human PPARγ, 1 to 3 µM.
As for `CCCCCCCn1nc(NCCCOc2ccc(OC(C)(C)C(=O)OCC)cc2)c(=O)n(C)c1=O` [Example 45, Ethyl 2-{4-[3-(2-heptyl-4-methyl-3,5-dioxo-2,3,4,5-tetrahydro-[1,2,4]triazin-6-ylamino)-propoxy]-phenoxy}-2-methyl-propionate], the change in vivo at 10 mg/kg in assay [1] (setting [2]) is -16%. The Plasma triglycerides result in assay [1] (at 10 mg/kg) was “inactive at 10”. For the same molecule, the EC50 on human PPARα is 1000 to 3000 nM; at human PPARγ, approximately 3 µM.
As for `Cn1nc(NCCCCc2cccc(OC(C)(C)C(=O)O)c2)c(=O)n(CCCC(F)(F)F)c1=O` [Example 79, 2-Methyl-2-(3-{4-[2-methyl-3,5-dioxo-4-(4,4,4-trifluoro-butyl)-2,3,4,5-tetrahydro-[1,2,4]triazin-6-ylamino]-butyl}-phenoxy)-propionic Acid], the change in vivo at 2.5 mg/kg in assay [1] (setting [4]) was -32%; in assay [1] (setting [5]), -55%. Besides, the EC50 at human PPARα was approximately 30 nM; on human PPARγ, 3 to 10 µM.
Take `CCCCCCCn1nc(NCCc2ccc(SC(C)(C)C(=O)OCC)cc2)c(=O)n(C)c1=O` [Example 119, Ethyl 2-{4-[2-(2-heptyl-4-methyl-3,5-dioxo-2,3,4,5-tetrahydro-[1,2,4]triazin-6-ylamino)-ethyl]-phenylsulfanyl}-2-methyl-propionate]: the change in vivo at 2.5 mg/kg in assay [1] (setting [4]) is -21%. The change in vivo at 10 mg/kg is -32% in assay [1] (setting [2]) and -29% in assay [1] (setting [3]). For the same molecule, the Plasma triglycerides entry in assay [1] (at 2.5 mg/kg) is recorded as “active at 2.5”. Also, the EC50 at human PPARα came out at 300 nM; at human PPARγ, 0.3 µM.
For the molecule `CCCCCCCn1c(=O)c(NCCc2ccc(SC(C)(C)C(=O)O)cc2)nn(CCCC(F)(F)F)c1=O` [Example 123, 2-(4-{2-[4-Heptyl-3,5-dioxo-2-(4,4,4-trifluoro-butyl)-2,3,4,5-tetrahydro-[1,2,4]triazin-6-ylamino]-ethyl}-phenylsulfanyl)-2-methyl-propionic Acid], the change in vivo at 2.5 mg/kg in assay [1] (setting [4]) is -8%; in assay [1] (setting [5]), -6%. The change in vivo at 10 mg/kg was -14% in assay [1] (setting [2]) and -20% in assay [1] (setting [3]). Besides, the concentration for a half-maximal effect (EC50) on human PPARα was 100 to 300 nM; on human PPARγ, approximately 10 µM.
Consider `CCCCCCCn1nc(NCCCCc2cccc(OC(C)(C)C(=O)OCC)c2)c(=O)n(C)c1=O` [Example 75, Ethyl 2-{3-[4-(2-heptyl-4-methyl-3,5-dioxo-2,3,4,5-tetrahydro-[1,2,4]triazin-6-ylamino)-butyl]-phenoxy}-2-methyl-propionate], for which the change in vivo at 2.5 mg/kg in assay [1] (setting [4]) is -19%. Besides, the change in vivo at 10 mg/kg in assay [1] (setting [2]) is -13%. Also, in assay [1] (at 10 mg/kg), the Plasma triglycerides entry is “active at 10”. For the same molecule, the values for the EC50 at human PPARα and at human PPARγ were 3000 to 10000 nM and 3 to 10 µM, respectively.
On to `CCOC(=O)C(C)(C)Sc1cccc(CCCCNc2nn(C)c(=O)n(CCCC(F)(F)F)c2=O)c1` [Example 95], for which the change in vivo at 2.5 mg/kg in assay [1] (setting [4]) was -18%. The change in vivo at 10 mg/kg in assay [1] (setting [2]) is -40%. Moreover, the Plasma triglycerides entry in assay [1] (at 10 mg/kg) was “inactive at .10”. Further, the EC50 on human PPARα is 1000 to 3000 nM; at human PPARγ, more than 10 µM.
With `CCCCCCCn1c(=O)c(OCCCCCc2cccc(OC(C)(C)C(=O)OCC)c2)nn(C)c1=O` [Example 17, Ethyl 2-{3-[5-(4-heptyl-2-methyl-3,5-dioxo-2,3,4,5-tetrahydro-[1,2,4]triazin-6-yloxy)-pentyl]-phenoxy}-2-methyl-propionate], in assay [1] (setting [3]), the change in vivo at 10 mg/kg was -37%. Moreover, the Plasma cholesterol entry in assay [1] (at 10 mg/kg) is “active at 10”. Also, the EC50 at human PPARα was 300 to 1000 nM; at human PPARγ it was approximately 0.3 µM.
For `CCCCCCCn1nc(NCCCc2cccc(OC(C)(C)C(=O)OCC)c2)c(=O)n(C)c1=O` [Example 64, Ethyl 2-{3-[3-(2-heptyl-4-methyl-3,5-dioxo-2,3,4,5-tetrahydro-[1,2,4]triazin-6-ylamino)-propyl]-phenoxy}-2-methyl-propionate], the EC50 at human PPARα is more than 10000 nM; on human PPARγ, 3 to 10 µM.
For `CCOC(=O)/C=C/Cn1nc(NCCc2ccc(OC(C)(C)C(=O)OCC)cc2)c(=O)n(CCCC(F)(F)F)c1=O` [Example 104, Ethyl 4-[6-{2-[4-(1-ethoxycarbonyl-1-methyl-ethoxy)-phenyl]-ethylamino}-3,5-dioxo-4-(4,4,4-trifluoro-butyl)-4,5-dihydro-3H-[1,2,4]triazin-2-yl]-but-2-enoate], the EC50 was 1000 to 3000 nM on human PPARα and more than 10 µM on human PPARγ.
As for `CCCCCCCn1nc(NCCCc2cccc(OC(C)(C)C(=O)OCC)c2)c(=O)n(CCCCCCC)c1=O` [Example 69, Ethyl 2-{3-[3-(2,4-diheptyl-3,5-dioxo-2,3,4,5-tetrahydro-[1,2,4]triazin-6-ylamino)-propyl]-phenoxy}-2-methyl-propionate], the figures for the EC50 on human PPARα and at human PPARγ were 1000 to 3000 nM and approximately 10 µM, respectively.
Regarding `CCCCCCCn1c(=O)c(OCCCCCc2cccc(OC(C)(C)C(=O)OCC)c2)nn(CCCC(F)(F)F)c1=O` [Example 18, Ethyl 2-(3-{5-[4-heptyl-3,5-dioxo-2-(4,4,4-trifluoro-butyl)-2,3,4,5-tetrahydro-[1,2,4]triazin-6-yloxy]-pentyl}-phenoxy)-2-methyl-propionate], the EC50 on human PPARα is 30 to 100 nM; at human PPARγ, approximately 1 µM.
For the molecule `CCOC(=O)C(C)(C)Oc1ccc(CCCCOc2nn(C)c(=O)n(CCCC(F)(F)F)c2=O)cc1` [Example 30, Ethyl 2-methyl-2-(4-{4-[2-methyl-3,5-dioxo-4-(4,4,4-trifluoro-butyl)-2,3,4,5-tetrahydro-[1,2,4]triazin-6-yloxy]-butyl}-phenoxy)-propionate], the 50% effective concentration (EC50) at human PPARα is 30 to 100 nM; on human PPARγ it was more than 10 µM.

Broadly, the EC50 is the concentration giving half of the maximal effect. A high value points to a need for much substance.
